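Step 1: Grow cells in 96-well plates. Step 2: Expose to compound for 48 hours at 5 concentrations. Step 3: Interpolate endpoints linearly; if unreached, use highest concentration. Abbreviation: GI50, concentration required for 50% inhibition of growth.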 Calls of active or inactive are those of the source. Rule as the data show it: active = GI50 up to about 1.1 µM and inactive = higher.
Key:
Assay in all cases: growth of human tumour cells (NCI), 48 h
KM-20L2 = test system: KM-20L2
SF-295 = test system: SF-295
786-0 = test system: 786-0
CAKI-1 = test system: CAKI-1
A498 = test system: A498
UACC-62 = test system: UACC-62
NCI-H460 = test system: NCI-H460
DMS-273 = test system: DMS-273
RXF 631 = test system: RXF 631
HCC 2998 = test system: HCC 2998
OVCAR-3 = test system: OVCAR-3
SNB-78 = test system: SNB-78
DMS-114 = test system: DMS-114
OVCAR-4 = test system: OVCAR-4
EKVX = test system: EKVX
LXFL 529 = test system: LXFL 529
RPMI-8226 = test system: RPMI-8226
OVCAR-5 = test system: OVCAR-5
SK-MEL-2 = test system: SK-MEL-2
M19-MEL = test system: M19-MEL
SF-539 = test system: SF-539
HOP-62 = test system: HOP-62
HT-29 = test system: HT-29
RXF 393 = test system: RXF 393
HOP-92 = test system: HOP-92
NCI-H226 = test system: NCI-H226
SNB-75 = test system: SNB-75
ACHN = test system: ACHN
UACC-257 = test system: UACC-257
NCI-H23 = test system: NCI-H23
HOP-18 = test system: HOP-18
SK-MEL-5 = test system: SK-MEL-5
Malme-3M = test system: Malme-3M
K562 = test system: K562
A549 = test system: A549
SNB-19 = test system: SNB-19
SF-268 = test system: SF-268
SK-MEL-28 = test system: SK-MEL-28
UO-31 = test system: UO-31
DLD-1 = test system: DLD-1
MOLT-4 = test system: MOLT-4
U-251 = test system: U-251
HL-60 = test system: HL-60
HCT-116 = test system: HCT-116
IGROV-1 = test system: IGROV-1
SN12C = test system: SN12C
KM12 = test system: KM12
SW-620 = test system: SW-620
LOX IMVI = test system: LOX IMVI
OVCAR-8 = test system: OVCAR-8
HCT-15 = test system: HCT-15
M14 = test system: M14
TK-10 = test system: TK-10
CCRF-CEM = test system: CCRF-CEM
SR = test system: SR
COLO 205 = test system: COLO 205
NCI-H522 = test system: NCI-H522
SK-OV-3 = test system: SK-OV-3
MCF7 = test system: MCF7
T47D = test system: T47D
NCI/ADR-RES = test system: NCI/ADR-RES
MDA-MB-435 = test system: MDA-MB-435
XF498 = test system: XF498
MDA-MB-231 = test system: MDA-MB-231
DU-145 = test system: DU-145
MDA-N = test system: MDA-N
BT-549 = test system: BT-549
PC-3 = test system: PC-3

N#CC(C(=O)CCC(=O)Nc1ccc(Cl)c(Cl)c1)c1ccc(Cl)cc1 (stereo not given)
GI50 (KM-20L2): 15 µM (inactive) | GI50 (SF-295): 69.5 µM (inactive) | GI50 (786-0): > 100 µM (inactive) | GI50 (CAKI-1): 37.3 µM (inactive) | GI50 (A498): > 100 µM (inactive) | GI50 (UACC-62): 11.6 µM (inactive) | GI50 (NCI-H460): > 100 µM (inactive) | GI50 (DMS-273): 39.3 µM (inactive) | GI50 (RXF 631): 90.6 µM (inactive) | GI50 (HCC 2998): > 100 µM (inactive) | GI50 (OVCAR-3): > 100 µM (inactive) | GI50 (SNB-78): > 100 µM (inactive) | GI50 (DMS-114): 75.3 µM (inactive) | GI50 (OVCAR-4): > 100 µM (inactive) | GI50 (EKVX): > 100 µM (inactive) | GI50 (LXFL 529): 21.3 µM (inactive) | GI50 (RPMI-8226): 48.2 µM (inactive) | GI50 (OVCAR-5): 23.9 µM (inactive) | GI50 (SK-MEL-2): 22.9 µM (inactive) | GI50 (M19-MEL): 82.2 µM (inactive) | GI50 (SF-539): > 100 µM (inactive) | GI50 (HOP-62): > 100 µM (inactive) | GI50 (HT-29): > 100 µM (inactive) | GI50 (RXF 393): > 100 µM (inactive) | GI50 (HOP-92): 80.9 µM (inactive) | GI50 (NCI-H226): > 100 µM (inactive) | GI50 (SNB-75): 51.1 µM (inactive) | GI50 (ACHN): 17.4 µM (inactive) | GI50 (UACC-257): > 100 µM (inactive) | GI50 (NCI-H23): > 100 µM (inactive) | GI50 (HOP-18): > 100 µM (inactive) | GI50 (SK-MEL-5): 65.6 µM (inactive) | GI50 (Malme-3M): > 100 µM (inactive) | GI50 (K562): 14.6 µM (inactive) | GI50 (A549): 84.9 µM (inactive) | GI50 (SNB-19): > 100 µM (inactive) | GI50 (SF-268): > 100 µM (inactive) | GI50 (SK-MEL-28): > 100 µM (inactive) | GI50 (UO-31): 75.2 µM (inactive) | GI50 (DLD-1): 55.5 µM (inactive) | GI50 (MOLT-4): 53.7 µM (inactive) | GI50 (U-251): > 100 µM (inactive) | GI50 (HL-60): 83.9 µM (inactive) | GI50 (HCT-116): > 100 µM (inactive) | GI50 (IGROV-1): 80 µM (inactive) | GI50 (SN12C): > 100 µM (inactive) | GI50 (KM12): 47.5 µM (inactive) | GI50 (SW-620): > 100 µM (inactive) | GI50 (LOX IMVI): > 100 µM (inactive) | GI50 (OVCAR-8): > 100 µM (inactive) | GI50 (HCT-15): 17.1 µM | GI50 (M14): 51.4 µM (inactive) | GI50 (TK-10): > 100 µM (inactive)

Cc1ccc(S(=O)(=O)N/N=C2\CCCCC23CCC(=O)NC3)cc1 (stereo not given)
GI50 (KM-20L2): > 100 µM (inactive) | GI50 (786-0): > 100 µM (inactive) | GI50 (CAKI-1): > 100 µM (inactive) | GI50 (A498): > 100 µM (inactive) | GI50 (UACC-62): > 100 µM (inactive) | GI50 (NCI-H460): > 100 µM (inactive) | GI50 (DMS-273): > 100 µM (inactive) | GI50 (RXF 631): > 100 µM (inactive) | GI50 (HCC 2998): > 100 µM (inactive) | GI50 (OVCAR-3): > 100 µM (inactive) | GI50 (SNB-78): > 100 µM (inactive) | GI50 (DMS-114): > 100 µM (inactive) | GI50 (OVCAR-4): > 100 µM (inactive) | GI50 (LXFL 529): > 100 µM (inactive) | GI50 (CCRF-CEM): > 100 µM (inactive) | GI50 (RPMI-8226): > 100 µM (inactive) | GI50 (SK-MEL-2): > 100 µM (inactive) | GI50 (SR): > 100 µM (inactive) | GI50 (M19-MEL): > 100 µM (inactive) | GI50 (SF-539): > 100 µM (inactive) | GI50 (HOP-62): > 100 µM (inactive) | GI50 (RXF 393): > 100 µM (inactive) | GI50 (NCI-H226): > 100 µM (inactive) | GI50 (SNB-75): > 100 µM (inactive) | GI50 (ACHN): > 100 µM (inactive) | GI50 (UACC-257): > 100 µM (inactive) | GI50 (HOP-18): > 100 µM (inactive) | GI50 (SK-MEL-5): > 100 µM (inactive) | GI50 (Malme-3M): > 100 µM (inactive) | GI50 (K562): > 100 µM (inactive) | GI50 (A549): > 100 µM (inactive) | GI50 (SNB-19): > 100 µM (inactive) | GI50 (SF-268): > 100 µM (inactive) | GI50 (SK-MEL-28): > 100 µM (inactive) | GI50 (COLO 205): > 100 µM (inactive) | GI50 (UO-31): > 100 µM (inactive) | GI50 (DLD-1): > 100 µM (inactive) | GI50 (MOLT-4): > 100 µM (inactive) | GI50 (U-251): > 100 µM (inactive) | GI50 (NCI-H522): > 100 µM (inactive) | GI50 (HL-60): > 100 µM (inactive) | GI50 (HCT-116): > 100 µM (inactive) | GI50 (IGROV-1): > 100 µM (inactive) | GI50 (SN12C): > 100 µM (inactive) | GI50 (KM12): > 100 µM (inactive) | GI50 (SW-620): > 100 µM (inactive) | GI50 (OVCAR-8): > 100 µM (inactive) | GI50 (HCT-15): > 100 µM | GI50 (M14): > 100 µM (inactive) | GI50 (SK-OV-3): > 100 µM (inactive) | GI50 (TK-10): > 100 µM (inactive)

C[C@]12CC[C@@H]3c4ccc(O)cc4CC[C@H]3[C@@H]1CC[C@@H]2OC(=O)CCC1CCCC1 [ESTRADIOL CYPIONATE]
GI50 (KM-20L2): 17.7 µM (inactive) | GI50 (SF-295): 16.7 µM (inactive) | GI50 (786-0): 16.3 µM (inactive) | GI50 (CAKI-1): 19.1 µM (inactive) | GI50 (A498): 20.3 µM (inactive) | GI50 (UACC-62): 14.4 µM (inactive) | GI50 (MCF7): 17.1 µM (inactive) | GI50 (T47D): 14.2 µM (inactive) | GI50 (NCI-H460): 18.7 µM (inactive) | GI50 (DMS-273): 14.3 µM (inactive) | GI50 (HCC 2998): 19.8 µM (inactive) | GI50 (OVCAR-3): 16.4 µM (inactive) | GI50 (SNB-78): 56.9 µM (inactive) | GI50 (DMS-114): 30.8 µM (inactive) | GI50 (OVCAR-4): 17.5 µM (inactive) | GI50 (EKVX): 7.45 µM (inactive) | GI50 (LXFL 529): 17.5 µM (inactive) | GI50 (CCRF-CEM): 17.8 µM (inactive) | GI50 (RPMI-8226): 18.5 µM (inactive) | GI50 (OVCAR-5): 26.2 µM (inactive) | GI50 (SK-MEL-2): 23.2 µM (inactive) | GI50 (SR): 17.8 µM (inactive) | GI50 (M19-MEL): 27.4 µM (inactive) | GI50 (SF-539): 18.8 µM (inactive) | GI50 (HOP-62): 18.8 µM (inactive) | GI50 (HT-29): 17.9 µM (inactive) | GI50 (RXF 393): 10.4 µM (inactive) | GI50 (HOP-92): 23.1 µM (inactive) | GI50 (NCI-H226): 19.1 µM (inactive) | GI50 (NCI/ADR-RES): 16.5 µM (inactive) | GI50 (MDA-MB-435): 10 µM (inactive) | GI50 (XF498): 18.9 µM (inactive) | GI50 (ACHN): 23.8 µM (inactive) | GI50 (UACC-257): 35 µM (inactive) | GI50 (NCI-H23): 17.7 µM (inactive) | GI50 (HOP-18): 20.3 µM (inactive) | GI50 (SK-MEL-5): 17.5 µM (inactive) | GI50 (Malme-3M): 26.9 µM (inactive) | GI50 (K562): 17.2 µM (inactive) | GI50 (A549): 17.8 µM (inactive) | GI50 (MDA-MB-231): 17.5 µM (inactive) | GI50 (SNB-19): 16.9 µM (inactive) | GI50 (SF-268): 21.8 µM (inactive) | GI50 (SK-MEL-28): 18.2 µM (inactive) | GI50 (COLO 205): 19.1 µM (inactive) | GI50 (UO-31): 18.4 µM (inactive) | GI50 (DLD-1): 33 µM (inactive) | GI50 (DU-145): 13.7 µM (inactive) | GI50 (MDA-N): 6.85 µM (inactive) | GI50 (BT-549): 17.7 µM (inactive) | GI50 (MOLT-4): 17.8 µM (inactive) | GI50 (U-251): 18.7 µM (inactive) | GI50 (NCI-H522): 17.1 µM (inactive) | GI50 (HL-60): 17.8 µM (inactive) | GI50 (HCT-116): 17.3 µM (inactive) | GI50 (IGROV-1): 17.6 µM (inactive) | GI50 (SN12C): 16.7 µM (inactive) | GI50 (PC-3): 16.6 µM (inactive) | GI50 (KM12): 26.8 µM (inactive) | GI50 (SW-620): 20.9 µM (inactive) | GI50 (LOX IMVI): 18 µM (inactive) | GI50 (OVCAR-8): 16.7 µM (inactive) | GI50 (HCT-15): 16.2 µM | GI50 (M14): 20.1 µM (inactive) | GI50 (SK-OV-3): 19.4 µM (inactive) | GI50 (TK-10): 23.4 µM (inactive)
